# Reference: patent US9439975B2, “Small efficient cell penetrating peptides derived from the scorpion toxin maurocalcine” (Commissariat A L'Energie Atomique Et Aux Energies …, priority 2011, dated 2016)
# “Also recorded” adds a separate entry of the source. Square brackets hold non-standard residues; d marks the D form. Primed or numbered codes have the meaning given here. Ends that are not written are not given here. Cy5″ = Cy5 dye, coupled as maleimide to the C-terminal Cys; Abu = CC[C@H](N)C(=O)O; Cy5 = Cy5 label
# Assays:
# F98 rat glioma cell line = experiment: Flow cytometry of dose-dependent cell penetration in F98 cells; assay type: cell-based; settings: Cy5-labeled peptides
# Description: (§1) Chinese hamster ovary (CHO) and F98 rat glioma cell lines (from ATCC) were maintained at 37° C. in 5% CO2 in F-12K nutrient medium (INVITROGEN) supplemented with 10% (v/v) heat-inactivated fetal bovine serum (INVITROGEN) and 10,000 units/ml streptomycine and penicillin (INVITROGEN) for the CHO cells, and 2% heat-inactivated fetal bovine serum and 100 units/ml streptomycine and penicillin for the F98 cells
# (§2) CHO and F98 cells were incubated with various concentrations of Cy5-labeled peptides in F-12K culture medium without serum at 37° C. for 2 hrs. The cells were then washed with PBS to remove excess extracellular peptide and treated with 1 mg/ml trypsin (INVITROGEN) for 5 min at 37° C. to detach cells from the surface, and centrifuged at 200 g before suspension in PBS. For experiments with the macropinocytosis inhibitor, amiloride, CHO cells were initially washed with F-12K and preincubated for 30 min at 37° C. with 1 mM amiloride (SIGMA). The cells were then incubated for 2 hrs at 37° C. with 1 μM of the Cy5-MCa analogues. For all these experimental conditions, flow cytometry analyses were performed with live cells using a Becton Dickinson flow cytometer LSR II or an Accuri® flow cytometer (BD BIOSCIENCES). Data were obtained and analyzed using FCS express software (DE NOVO) or Accuri® proprietary software CFlow sampler. Live cells were gated by forward/side scattering from a total of 10,000 events.
# (§3) Cy5-labeled peptides derived from MCaUF1-9 were synthesized and assayed by confocal microscopy or flow cytometry as described in example 1.
# F98 cell line = experiment: Confocal microscopy of peptide penetration in F98 cell line, comparison with Tat; assay type: cell-based, rat
# Description: (§4) For analysis of the subcellular localization of MCa-Cy5 analogues in living cells, cell cultures were incubated with the fluorescent peptides for 2 hrs, and then washed with phosphate-buffered saline (PBS) alone. The plasma membrane was stained with 5 μg/ml rhodamine-conjugated concanavalin A (MOLECULAR PROBES) for 5 min. Cells were washed once more. Live cells were then immediately analyzed by confocal laser scanning microscopy using a Leica TCS-SPE operating system. Rhodamine (580 nm) and Cy5 (670 nm) were sequentially excited and emission fluorescence were collected in z-confocal planes of […] steps.
# as §3
# CHO cells [1] = experiment: Flow cytometry of cell penetration of Cy5-labeled peptides in CHO cells; assay type: cell-based, Chinese hamster; settings: for dose-dependent cell penetration: concentrations up to 33 μM; for cell penetration (fluorescence accumulation within cells): 2 hrs incubation, 3 μM peptide, trypsin treatment
# Description: Each peptide was labeled with Cy5 according to the manufacturer's protocol (GE HEALTHCARE). Peptides were dissolved at 1 mg/ml in 0.1 M Na2CO3 buffer, pH 9.3. 300 μl of the solubilized peptides were added to Cy5-maleimide containing tubes. The mixtures were incubated during 2 hrs at room temperature and then purified by HPLC using an analytical Vydac C18 column. Elution of the Cy5-labeled peptides was performed with a 10-60% acetonitrile linear gradient containing 0.1% trifluoroacetic acid. The pure peak fractions were lyophilized and peptides quantified by UV spectrophotometer at 649 nm.
# as §1, §2
# CHO cells [2] = experiment: Confocal microscopy of subcellular localization of Cy5-labeled peptides in living CHO cells (rhodamine-concanavalin A membrane stain); assay type: cell-based, Chinese hamster; settings: 2 hrs; for Cy5-positive pixels rhodamine-positive (colocalization with the plasma membrane indicator): FIG. 3; for Rhodamine-positive staining also Cy5-positive (pixels): Cy5/rhodamine colocalization
# Description: as §4
# CHO cells [3] = experiment: Amiloride sensitivity of peptide cell entry (macropinocytosis inhibition), flow cytometry; assay type: cell-based, Chinese hamster; settings: for inhibition of cell penetration by amiloride: 2 hrs, peptide with or without 5 mM amiloride (FIG. 4A); for amiloride-sensitivity of cell penetration: Cy5 as cargo, flow cytometry (FIG. 4)
# Description: as §2, with “For experiments with the macropinocytosis inhibitor, amiloride, CHO cells were initially washed with F-12K and preincubated for 30 min at 37° C. with 1 mM amiloride (SIGMA). The cells were then incubated for 2 hrs at 37° C. with 1 μM of the Cy5-MCa analogues.” left out
substance,measurement,setting,value
"GDWLPHLKL (MCa1-9, C3W variant) [MCaUF1-9(W3)]",cell penetration (CPP efficiency),F98 rat glioma cell line,ones of the best performing CPPs
same,penetration compared with 3 μM Tat,F98 cell line; 1 μM peptide,proved better CPP than Tat at 3 μM
GDaLPHLKL (GD[Abu]LPHLKL) [MCaUF1-9],cell penetration (CPP efficiency),F98 rat glioma cell line,ones of the best performing CPPs
same,penetration compared with 3 μM Tat,F98 cell line; 3 μM peptide,proved better CPP than Tat at 3 μM
same,dose-dependent cell penetration,CHO cells [1]; 2 hrs,penetrates better at low concentration
GDaLPHLKLC (GD[Abu]LPHLKLC) [MCaUF1-9-C],cell penetration (fluorescence accumulation within cells),CHO cells [1],showed CPP properties; also recorded: better CPP than MCaUF1-15-C
GDaLPHLKLaKENKDC (GD[Abu]LPHLKL[Abu]KENKDC) [MCaUF1-15-C],cell penetration (fluorescence accumulation within cells),CHO cells [1],showed CPP properties
GDaWPHLKL (GD[Abu]WPHLKL) [MCaUF1-9(Abu3-W4)],penetration compared with 3 μM Tat,F98 cell line; 1 μM peptide,proved better CPP than Tat at 3 μM
GTNIEKRaRC (GTNIEKR[Abu]RC) [MCaUF25-33-C],cell penetration (fluorescence accumulation within cells),CHO cells [1],have also CPP properties
KDaaSKKaKRRG (KD[Abu][Abu]SKK[Abu]KRRG) [MCaUF14-25],dose-dependent cell penetration,CHO cells [1]; 2 hrs,yields the greatest cell entry of the dye
KDalKHLQR (KD[Abu]IKHLQR) [HadUF3-11],cell penetration (CPP efficiency),F98 rat glioma cell line,ones of the best performing CPPs
same,cell penetration (CPP efficiency),F98 rat glioma cell line; listed as HadUF3-9(Abu5),perform better as CPP than the maurocalcine derived peptide MCaUF1-9(Abu3)
"MCaUF1-9-C-Cy5: MCaUF1-9-C (SEQ ID NO: 136, GDaLPHLKLC) labeled with Cy5 (GD[Abu]LPHLKLC(Cy5″))",Cy5-positive pixels rhodamine-positive (colocalization with the plasma membrane indicator),CHO cells [2],higher values of colocalization
same,intracellular / plasma membrane distribution,CHO cells [2]; confocal microscopy,dots appear at higher concentrations within one pole of the cell
same,concentration with detectable cell penetration,CHO cells [1]; 2 hrs,10 nM
same,dose-dependent cell penetration,CHO cells [1]; 2 hrs,best performing peptide for cell penetration at low concentrations
MCaUF1-15-C-Cy5: MCaUF1-15-C (SEQ ID NO: 135) labeled with Cy5 (GD[Abu]LPHLKL[Abu]KENKDC(Cy5″)),inhibition of cell penetration by amiloride,CHO cells [3],39%
same,amiloride-sensitivity of cell penetration,CHO cells [3],higher amiloride-sensitivity than MCaUF1-33-C-Cy5
MCaUF1-20-C-Cy5: MCaUF1-20-C (SEQ ID NO: 134) labeled with Cy5 (GD[Abu]LPHLKL[Abu]KENKD[Abu][Abu]SKKC(Cy5″)),Cy5-positive pixels rhodamine-positive (colocalization with the plasma membrane indicator),CHO cells [2],30.4±1.4%
same,dose-dependent cell penetration,CHO cells [1]; 2 hrs,performing as well as MCaUF8-33-C-Cy5
MCaUF1-33-C-Cy5: MCaUF1-33-C (SEQ ID NO: 140) labeled with Cy5 on the C-terminal Cys (GD[Abu]LPHLKL[Abu]KENKD[Abu][Abu]SKK[Abu]KRRGTNIEKR[Abu]RC(Cy5)),Cy5-positive pixels rhodamine-positive (colocalization with the plasma membrane indicator),CHO cells [2],10.1±2.6%
same,degree of accumulated cell fluorescence,CHO cells [2]; confocal microscopy,penetrate the least
same,cell penetration (fluorescence accumulation within cells),CHO cells [1],penetrated efficiently within CHO cells
same,dose-dependent cell penetration,CHO cells [1]; 2 hrs,least-performing cell penetrating peptide
same,inhibition of cell penetration by amiloride,CHO cells [3],19.6%
MCaUF8-33-C-Cy5: MCaUF8-33-C (SEQ ID NO: 141) labeled with Cy5 (KL[Abu]KENKD[Abu][Abu]SKK[Abu]KRRGTNIEKR[Abu]RC(Cy5″)),intracellular / plasma membrane distribution,CHO cells [2]; confocal microscopy,dots appear at higher concentrations within one pole of the cell
same,dose-dependent cell penetration,CHO cells [1]; 2 hrs,did not show any sign of saturation; also recorded: no saturation of cell entry
MCaUF11-33-C-Cy5: MCaUF11-33-C (SEQ ID NO: 142) labeled with Cy5 (KENKD[Abu][Abu]SKK[Abu]KRRGTNIEKR[Abu]RC(Cy5″)),Cy5-positive pixels rhodamine-positive (colocalization with the plasma membrane indicator),CHO cells [2],21.3±2.6%
same,intracellular / plasma membrane distribution,CHO cells [2]; confocal microscopy,dots appear at higher concentrations within one pole of the cell
same,amiloride-sensitivity of cell penetration,CHO cells [3],higher amiloride-sensitivity than MCaUF1-33-C-Cy5
MCaUF14-25-C-Cy5: MCaUF14-25-C (SEQ ID NO: 139) labeled with Cy5 (KD[Abu][Abu]SKK[Abu]KRRGC(Cy5″)),intracellular / plasma membrane distribution,CHO cells [2]; confocal microscopy,sub-plasma membrane rim localization was more evident
same,dose-dependent cell penetration,CHO cells [1]; 2 hrs,yields the greatest fluorescence accumulation
same,amiloride-sensitivity of cell penetration,CHO cells [3],higher amiloride-sensitivity than MCaUF1-33-C-Cy5
MCaUF14-33-C-Cy5: MCaUF14-33-C (SEQ ID NO: 143) labeled with Cy5 (KD[Abu][Abu]SKK[Abu]KRRGTNIEKR[Abu]RC(Cy5″)),Rhodamine-positive staining also Cy5-positive (pixels),CHO cells [2],best performing
same,Cy5-positive pixels rhodamine-positive (colocalization with the plasma membrane indicator),CHO cells [2],higher values of colocalization
MCaUF18-33-C-Cy5: MCaUF18-33-C (SEQ ID NO: 137) labeled with Cy5 (SKK[Abu]KRRGTNIEKR[Abu]RC(Cy5″)),Rhodamine-positive staining also Cy5-positive (pixels),CHO cells [2],best performing
same,dose-dependent cell penetration,CHO cells [1]; 2 hrs,performed drastically better than the other truncated peptides
same,amiloride-sensitivity of cell penetration,CHO cells [3],enhance rather than inhibit the cell penetration
MCaUF20-33-C-Cy5: MCaUF20-33-C (SEQ ID NO: 144) labeled with Cy5 (K[Abu]KRRGTNIEKR[Abu]RC(Cy5″)),Rhodamine-positive staining also Cy5-positive (pixels),CHO cells [2],best performing
same,intracellular / plasma membrane distribution,CHO cells [2]; confocal microscopy,Diffuse membrane labeling
same,amiloride-sensitivity of cell penetration,CHO cells [3],enhance rather than inhibit the cell penetration
MCaUF22-33-C-Cy5: MCaUF22-33-C (SEQ ID NO: 145) labeled with Cy5 (KRRGTNIEKR[Abu]RC(Cy5″)),Rhodamine-positive staining also Cy5-positive (pixels),CHO cells [2],best performing
same,intracellular / plasma membrane distribution,CHO cells [2]; confocal microscopy,direct plasma membrane labeling
MCaUF25-33-C-Cy5: MCaUF25-33-C (SEQ ID NO: 146) labeled with Cy5 (GTNIEKR[Abu]RC(Cy5″)),intracellular / plasma membrane distribution,CHO cells [2]; confocal microscopy,dots appear at higher concentrations within one pole of the cell; also recorded: Diffuse membrane labeling
same,amiloride-sensitivity of cell penetration,CHO cells [3],higher amiloride-sensitivity than MCaUF1-33-C-Cy5
SEKDalKHLQR (SEKD[Abu]IKHLQR) [HadUF1-11],cell penetration (CPP efficiency),F98 rat glioma cell line,ones of the best performing CPPs
same,cell penetration (CPP efficiency),F98 rat glioma cell line; listed as HadUF1-11(Abu5),perform better as CPP than the maurocalcine derived peptide MCaUF1-9(Abu3)
same,penetration compared with 3 μM Tat,F98 cell line; 1 μM peptide,proved better CPP than Tat at 3 μM
SKKaKRRGTNIEKRaR (SKK[Abu]KRRGTNIEKR[Abu]R) [MCaUF18-33],amiloride-sensitivity of cell penetration,CHO cells [3],macropinocytosis entry-independent
aLPHLKL ([Abu]LPHLKL) [MCaUF3-9],cell penetration (CPP efficiency),F98 rat glioma cell line,ones of the best performing CPPs
same,cell penetration (CPP efficiency),F98 rat glioma cell line; listed as MCaUF3-9(Abu3),efficient CPP
same,penetration compared with 3 μM Tat,F98 cell line; 1 μM peptide,proved better CPP than Tat at 3 μM
